Reference: patent US7498340B2, “Esters in position 20 of camptothecins” (priority 2002, dated 2009)
pIC50: −log10 of the molar value. Counter-ions that a name gives are not always drawn. Like-named read-outs stand apart in the source and are kept apart here.

System: NCI-H460
[1] = read-out: NCI-H460 IC50, 2 h exposure, then 72 h recovery, concentration inhibiting 50% of cell survival, ALLFIT software

| Compound | pIC50 [1] | pIC50 (read-out: Cytotoxicity test on H460 cells: IC50, H460 cells, printed as 42 nM±6) |
| --- | --- | --- |
| 7-ter-butoxyiminomethyl-20-O-(2-methoxy-phenyl-glycyl)succinyl-camptothecin [ST1617] | 7.54 | – |
| 20-O-(2-methoxyphenylglycyl)succinyl-camptothecin [ST1454] | 6.80 | – |
| 20-O-(benzylglycyl)succinyl-camptothecin [ST1451] | 6.82 | – |
| 20-O-(terbutylglycyl)succinyl-camptothecin bromide [ST1453] | 6.59 | – |
| CC[C@@]1(OC(=O)CCC(=O)NCC(=O)O)C(=O)OCc2c1cc1n(c2=O)Cc2cc3ccccc3nc2-1 [ST1452, 20-O-(glycyl)succinyl-camptothecin] | 5.80 | – |
| CC[C@@]1(OC(=O)CCC(=O)NCC(=O)OC(C)(C)C)C(=O)OCc2c1cc1n(c2=O)Cc2c-1nc1ccccc1c2C=NOC(C)(C)C [ST1616, 7-ter-butoxyiminomethyl-20-O-(terbutylglycyl)succinyl-camptothecin] | 8.40 | – |
| CCC1(OC(=O)CCC(=O)NCCN(C)C)C(=O)OCc2c1cc1n(c2=O)Cc2c-1nc1ccccc1c2C=NOC(C)(C)C (stereo not shown) [ST1657, (E)-7-tert-butoxyiminomethyl-20-O-[2-(dimethylamino)ethylamino]succinyl-camptothecin hydrochloride] | 7.92 | – |
| CCC1(OC(=O)CCC[N+](C)(C)C)C(=O)OCc2c1cc1n(c2=O)Cc2c-1nc1ccccc1c2C=NOC(C)(C)C (stereo not shown) [ST2200, (E)-7-tert-butoxyiminomethyl-20-O-(4-trimethylammonium)-butanoyl-camptothecin bromide] | 7.77 | – |
| CC[C@@]1(OC(=O)CCCBr)C(=O)OCc2c1cc1n(c2=O)Cc2c-1nc1ccccc1c2/C=N/OC(C)(C)C [ST2599, (E)-7-tert-butoxyiminomethyl-20-O-(4-bromo)-butyryl-camptothecin] | – | 7.38 |
| (E)-7-tert-butoxyiminomethyl-20-O-(4-trimethyl-ammonium-3-hydroxy)butanoyl-camptothecin bromide [ST2204] | 7.39 | – |
